Data taken from patent US7344829B2, “Methods for detecting the efficacy of anticancer treatments” (Board of Regents, the University of Texas System, priority 2000, dated 2008).
Read-outs that look alike come from different tables or passages of the source.

Legend:
IL-8 = assay: In vitro expression of IL-8 by L3.6pl cells (ELISA); assay type: cell-based, human; conditions: 72 h, 1 μM PKI166 or 10 nM gemcitabine, control 1440 pg/ml
Protocol: In vitro Expression of VEGF and IL-8. L3.6pl cells (2000 cells/38 mm^2 well) were plated into 96-well plates in 200 μl supplemented DMEM containing 5% FBS for 24 h, and then treated with 0.05, 0.5, or 1 μM PKI166. Supplemented DMEM (5% FBS) and human IgG (10 μg/ml) served as controls. Seventy-two hours later, the culture supernatants were collected, and the level of VEGF and IL-8 proteins (corrected for cell number) were determined by Quantikine ELISA kits.

[1] = mice, cited from earlier work
c-Met = molecular target: T1, c-Met (Homo sapiens, UniProt P08581); assay: GST-fused kinase domain assay, c-Met; assay type: biochemical
T1 construct: GST-fused kinase domains of Kdr, Flt-1, Flk, Tek, c-Met, and c-Kit were expressed in baculovirus; GST; made in house
Protocol: (§1) GST-fused kinase domains of Kdr, Flt-1, Flk, Tek, c-Met, and c-Kit were expressed in baculovirus and purified over glutathione-Sepharose. Kinase inhibition was measured by detecting the decrease in phosphorylation of poly(Glu,Tyr 4:1) essentially as previously described for EGF-R. Each kinase was incubated under optimized buffer conditions in 20 mM Tris-HCl, pH 7.5, 1–3 mM MnCl2, 3–10 mM MgCl2, 10 μM Na3VO4, 1 mM DTT, 0.2 μCi/[γ-^33P]ATP, 1–8 μM ATP, 3–8 μg/ml poly(Glu,Tyr 4:1), 1% DMSO in a total volume of 30 μl in the presence or absence of PKI166 for 10 min at ambient temperature. Reactions were terminated by adding 10 μl of 250 mM EDTA, and the reaction mixture was transferred onto an Immobilon-PVDG membrane (Millipore, Bedford, Mass.). Following a washing (0.5% H3PO4), a soaking in EtOH, and drying, filters were counted in a liquid scintillation counter. IC50 values for PKI166 were calculated by linear regression analysis of the percentage inhibition. Inhibition of Cdc2/cyclin B protein kinase (Arion et al. 1988; Partanen et al. 1991) and PKC (McGlynn et al. 1992b) was assayed as previously described.

Tek = molecular target: T2, Tek (Homo sapiens, UniProt Q02763); assay: GST-fused kinase domain assay, Tek; assay type: biochemical
T2 construct: GST-fused kinase domains of Kdr, Flt-1, Flk, Tek, c-Met, and c-Kit were expressed in baculovirus; GST; made in house
Protocol: as §1

c-Src = c-Src (Homo sapiens, UniProt P12931); assay: In vitro kinase filter binding assay, c-Src; assay type: biochemical
Protocol: Preparation of Enzymes and Kinase Assays. In vitro enzyme assays using EGF-R (McGlynn et al. 1992a), Abl (Geissler et al. 1992), and c-Src (Geissler et al. 1990) protein tyrosine kinases were performed in 96-well plates as a filter binding assay. Briefly, EGF-R intracellular kinase domain (EGF-R-ICD) was assayed in 20 mM Tris-HCl, pH 7.5, 10 mM MnCl2, 10 μM Na3VO4, 1 mM DTT, 0.1 μCi/assay [γ-^33P]ATP, 0.4 μM ATP, 2 μ/ml poly(Glu,Tyr 4:1) (Sigma P275), 1% DMSO, and 30 ng EGF-R-ICD in a total volume of 30 μl. […] Src kinase (60 μg/ml) was preactivated with 50 μM ATP for 10 min at room temperature, and kinase inhibition was measured in 20 mM Tris-HCl, pH 7.5, 10 mM MgCl2, 10 μM Na3VO4, 1 mM DTT, 0.1 μCi/assay (=30 μl ) [γ-^33P]ATP, 20 μM ATP, 25 μg/ml poly(Glu,Tyr 4:1), 1% DMSO, and 10 ng c-Src enzyme.
GST-fused kinase domains of Kdr, Flt-1, Flk, Tek, c-Met, and c-Kit were expressed in baculovirus and purified over glutathione-Sepharose. Kinase inhibition was measured by detecting the decrease in phosphorylation of poly(Glu,Tyr 4:1) essentially as previously described for EGF-R. Each kinase was incubated under optimized buffer conditions in 20 mM Tris-HCl, pH 7.5, 1–3 mM MnCl2, 3–10 mM MgCl2, 10 μM Na3VO4, 1 mM DTT, 0.2 μCi/[γ-^33P]ATP, 1–8 μM ATP, 3–8 μg/ml poly(Glu,Tyr 4:1), 1% DMSO in a total volume of 30 μl in the presence or absence of PKI166 for 10 min at ambient temperature. […]

Flk = molecular target: T3, Flk (Mus musculus, UniProt P35918); assay: GST-fused kinase domain assay, Flk; assay type: biochemical
T3 construct: GST-fused kinase domains of Kdr, Flt-1, Flk, Tek, c-Met, and c-Kit were expressed in baculovirus; GST; made in house
Protocol: as §1

PKC-α = PKC-α (Homo sapiens, UniProt P17252); assay: PKC inhibition assay; assay type: biochemical
Protocol: as §1

EGF-R = molecular target: T4, EGF-R (Homo sapiens, UniProt P00533); assay: Western blot analysis of EGF-R autophosphorylation in L3.6pl cells; assay type: cell-based; conditions: 60 min pretreatment, 0.01–0.5 μM, then EGF
T4 construct: endogenous in cells; host or cells: L3.6pl human pancreatic cancer cells
Protocol: Western Blot Analysis of EGF-R Autophosphorylation following Treatment with PKI166. […] without 40 ng/ml rhEGF for 10 min, washed, and scraped into PBS containing 5 mM EDTA and 1 mM Na Orthovanadate, and centrifuged, and the pellet resuspended in lysis buffer (20 mM Tris-HCl, pH 8.0, 137 mM NaCl, 10% glycerol, 2 mM EDTA, 1 mM phenylmethylsulfonyl fluoride, 20 μM leupeptin, and 0.15 U/ml aprotinin) sonicated, and centrifuged to recover […] protein. Immunoprecipitation was performed using Mab anti-EGF-R (clone EGF-RI) as described previously (Perrotte et al. 1999; Parker et al. 1998). Immunoprecipitates were analyzed on 7.5% NaDodSO4-PAGE and transferred onto 0.45-μm nitrocellulose membranes. The filters were blocked with 3% bovine serum albumin in TDS (20 mM Tris-HCl, pH 7.5, 150 mM NaCl), probed with either polyclonal sheep anti-human EGF-R (1:1000) or monoclonal anti-phosphotyrosine (Mab 4G10) (1:2000) in TTBS (0.1% Tween 20 in TBS), and incubated with horseradish peroxidase-conjugated donkey anti-sheep IgG (1:2000) (Sigma Immunochemicals, St. Louis, Mo.) or sheep anti-mouse IgG (1:2000), respectively, in TTBS. Protein bands were visualized by ECL detection system. For an additional experiment, serum-starved L3.6pl cells were treated with gemcitabine (10 nM) with or without PKI166 (0.05, 0.5 μM) for 1 h, and then incubated with or without rhEGF (40 ng/ml) for 10 min. […]

[2] = system: L3.6pl human pancreatic cancer cells
Description: Animals and Orthotopic Implantation of Tumor Cells. Male athymic nude mice (NCr-nu) were purchased from the Animal Production Area of the National Cancer Institute-Frederick Cancer Research and Development Center (Frederick, Md.). The mice were housed and maintained in laminar flow cabinets under specific pathogen-free conditions in facilities approved by the American Association for Accreditation of Laboratory Animal Care and in accordance with current regulations and standards of the U. S. Department of Agriculture, U.S. Department of Health and Human Services, and the National Institutes of Health. The mice were used in accordance with institutional guidelines when they were 8 to 12 wk old.
Orthotopic Implantation of Tumor Cells. To produce tumors, L3.6pl cells were harvested from subconfluent cultures by a brief exposure to 0.25% trypsin and 0.02% EDTA. Trypsinization was stopped with medium containing 10% FBS, and the cells were washed once in serum-free medium and resuspended in HBSS. Only suspensions consisting of single cells with greater than 90% viability were used for the injections. Cells were injected into the pancreas as described previously. The mice were killed when moribund (5–6 wk). The size and weight of the primary pancreatic tumors, the incidence of regional (celiac and paraaortal) lymph node metastasis, and the number of liver metastases were recorded. Histopathology confirmed the nature of the disease.
Therapy of Established Human Pancreatic Carcinoma Tumors Growing in the Pancreas of Athymic Nude Mice. Seven days after implantation of tumor cells into the pancreas, 5 mice were killed and the presence of tumor lesions was determined. At this time, the median tumor volume was 18 mm^3. Histological examination confirmed the lesions to be actively growing pancreatic cancer.
Necropsy Procedures and Histological Studies. Mice were euthanized and the body weight was determined. Primary tumors in the pancreas were excised and weighed. […] Visible liver metastases were counted with the aid of a dissecting microscope and processed for H&E staining. All macroscopically enlarged regional (celiac and paraaortal) lymph nodes were harvested, and the presence of metastatic disease was confirmed by histology.

Chain of c-Src (P12931 whole entry, species assumed, the tested form may be a part): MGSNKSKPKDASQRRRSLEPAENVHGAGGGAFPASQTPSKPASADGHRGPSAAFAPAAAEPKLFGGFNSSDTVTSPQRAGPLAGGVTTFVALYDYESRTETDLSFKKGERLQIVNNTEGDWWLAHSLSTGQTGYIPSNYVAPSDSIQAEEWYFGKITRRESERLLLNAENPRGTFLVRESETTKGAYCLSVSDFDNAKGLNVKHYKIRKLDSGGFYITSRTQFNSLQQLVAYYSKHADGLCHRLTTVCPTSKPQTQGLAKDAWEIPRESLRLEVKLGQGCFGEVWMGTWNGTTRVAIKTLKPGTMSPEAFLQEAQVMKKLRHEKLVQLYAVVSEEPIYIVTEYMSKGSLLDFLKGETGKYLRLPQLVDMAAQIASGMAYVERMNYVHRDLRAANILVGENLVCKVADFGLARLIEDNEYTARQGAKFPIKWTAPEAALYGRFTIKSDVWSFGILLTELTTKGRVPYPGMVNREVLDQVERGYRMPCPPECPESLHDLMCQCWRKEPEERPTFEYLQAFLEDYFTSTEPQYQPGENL
T1 sequence (P08581 1078-1345 limits assumed): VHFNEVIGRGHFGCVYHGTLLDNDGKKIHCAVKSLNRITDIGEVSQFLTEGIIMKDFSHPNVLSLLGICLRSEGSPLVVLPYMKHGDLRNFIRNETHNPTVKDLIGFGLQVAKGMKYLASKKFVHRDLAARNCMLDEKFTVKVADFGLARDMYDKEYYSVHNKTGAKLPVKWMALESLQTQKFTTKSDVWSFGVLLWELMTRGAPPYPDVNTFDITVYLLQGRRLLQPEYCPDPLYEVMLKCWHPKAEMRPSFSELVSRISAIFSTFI
T2 sequence (Q02763 824-1096 limits assumed, species assumed): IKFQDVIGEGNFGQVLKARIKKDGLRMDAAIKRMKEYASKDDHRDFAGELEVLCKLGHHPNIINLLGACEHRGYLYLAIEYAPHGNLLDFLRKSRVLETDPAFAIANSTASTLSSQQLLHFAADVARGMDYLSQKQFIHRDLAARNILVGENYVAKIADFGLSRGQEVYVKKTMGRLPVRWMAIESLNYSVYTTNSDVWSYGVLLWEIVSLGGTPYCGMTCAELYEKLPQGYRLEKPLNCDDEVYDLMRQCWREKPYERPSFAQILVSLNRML
T4 sequence (P00533 25-1210): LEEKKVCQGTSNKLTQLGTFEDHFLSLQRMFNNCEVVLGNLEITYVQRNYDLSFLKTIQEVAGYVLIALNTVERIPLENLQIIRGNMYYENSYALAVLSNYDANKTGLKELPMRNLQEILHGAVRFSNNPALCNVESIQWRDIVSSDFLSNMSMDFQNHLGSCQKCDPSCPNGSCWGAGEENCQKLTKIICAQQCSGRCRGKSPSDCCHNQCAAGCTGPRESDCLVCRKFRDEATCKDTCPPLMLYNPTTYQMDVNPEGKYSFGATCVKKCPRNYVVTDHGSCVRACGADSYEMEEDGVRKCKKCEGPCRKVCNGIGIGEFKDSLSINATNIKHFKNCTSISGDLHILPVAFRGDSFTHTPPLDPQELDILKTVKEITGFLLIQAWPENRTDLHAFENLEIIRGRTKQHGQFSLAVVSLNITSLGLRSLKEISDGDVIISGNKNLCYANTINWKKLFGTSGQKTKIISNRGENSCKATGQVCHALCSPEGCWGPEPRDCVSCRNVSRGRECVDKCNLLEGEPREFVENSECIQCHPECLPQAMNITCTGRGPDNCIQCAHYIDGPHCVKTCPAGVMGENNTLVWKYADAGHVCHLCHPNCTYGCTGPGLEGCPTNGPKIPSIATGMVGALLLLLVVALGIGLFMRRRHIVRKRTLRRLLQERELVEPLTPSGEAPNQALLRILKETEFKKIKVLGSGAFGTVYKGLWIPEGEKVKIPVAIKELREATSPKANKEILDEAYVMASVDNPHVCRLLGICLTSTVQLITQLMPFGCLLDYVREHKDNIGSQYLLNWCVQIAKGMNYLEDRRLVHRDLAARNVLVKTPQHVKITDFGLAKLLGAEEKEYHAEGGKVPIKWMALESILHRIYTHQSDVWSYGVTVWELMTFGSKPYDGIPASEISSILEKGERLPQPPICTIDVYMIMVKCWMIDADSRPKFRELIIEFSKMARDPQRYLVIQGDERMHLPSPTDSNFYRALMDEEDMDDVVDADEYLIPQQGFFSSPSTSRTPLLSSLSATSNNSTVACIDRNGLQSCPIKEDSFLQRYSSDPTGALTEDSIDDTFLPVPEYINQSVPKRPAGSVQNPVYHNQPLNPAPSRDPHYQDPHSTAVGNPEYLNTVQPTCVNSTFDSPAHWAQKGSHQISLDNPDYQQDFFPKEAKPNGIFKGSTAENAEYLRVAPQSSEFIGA
T3 sequence (P35918 832-1160 limits assumed): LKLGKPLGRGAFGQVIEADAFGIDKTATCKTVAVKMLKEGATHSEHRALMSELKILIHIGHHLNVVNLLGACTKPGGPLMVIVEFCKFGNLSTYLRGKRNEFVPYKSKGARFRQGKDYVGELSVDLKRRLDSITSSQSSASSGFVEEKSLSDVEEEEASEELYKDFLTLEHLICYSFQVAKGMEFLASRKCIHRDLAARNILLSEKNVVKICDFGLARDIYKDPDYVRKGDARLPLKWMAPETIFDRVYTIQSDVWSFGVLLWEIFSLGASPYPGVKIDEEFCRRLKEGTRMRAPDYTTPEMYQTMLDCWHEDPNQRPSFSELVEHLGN

C[C@@H](Nc1ncnc2[nH]c(-c3ccc(O)cc3)cc12)c1ccccc1 [PKI166, 4-(R)-phenethylamino-6-(hydroxyl) phenyl-7H-pyrrolo[2.3-d]-pyrimidine]
IL-8 in culture supernatant (IL-8): 640 pg/mL
Sustained levels of unchanged compound in plasma, time after oral administration ([1]; plasma, oral): up to 8 h
Cmax ([1]; single oral administration of 100 mg/kg, plasma, read-out: C max in plasma): 32.8 µM
Cmax ([1]; single oral administration of 100 mg/kg, subcutaneous A431 tumors, read-out: C max in subcutaneous A431 tumors): 53 µM
t max ([1]; single oral administration of 100 mg/kg): 1 h
IC50 (c-Met): > 1000 nM
IC50 (Tek): > 1000 nM
IC50 (c-Src): 103 nM
IC50 (c-Src; text): 130 nM
IC50 (Flk): > 1000 nM
IC50 (PKC-α): > 100000 nM
Inhibition of EGF-stimulated EGF-R autophosphorylation (EGF-R): inhibited the autophosphorylation in a dose-dependent manner
Histologically positive regional lymph node metastases, share of animals ([2]; day 35): 90%
Reduction of growth of primary pancreatic neoplasms ([2]; human pancreatic carcinoma in pancreas of nude mice): 45%
Tolerability as determined by maintenance of body weight ([2]; mouse, in vivo, po, 100 mg/kg): well tolerated
